In brackets after ≈: the same amount, converted by molar mass.
Legend:
Oculimacula yallundae [1] = test: Resistance index, ratio of EC50 for sterol 14alpha-demethylation inhibitor-resistant Oculimacula yallundae TriR2 to EC50 for wild type Oculimacula yallundae TriS by mycelial growth inhibition assay; assay type: functional
Oculimacula yallundae [2] = test: Resistance index, ratio of EC50 for sterol 14alpha-demethylation inhibitor-resistant Oculimacula yallundae TriR2 to EC50 for sterol 14alpha-demethylation inhibitor-resistant Oculimacula yallundae TriR1 by mycelial growth inhibition assay; assay type: functional
Oculimacula yallundae [3] = test: Resistance index, ratio of EC50 for sterol 14alpha-demethylation inhibitor-resistant Oculimacula yallundae MDR to EC50 for wild type Oculimacula yallundae TriS by mycelial growth inhibition assay; assay type: functional
Oculimacula yallundae [4] = test: Resistance index, ratio of EC50 for prochloraz-resistant Oculimacula yallundae isolate ProR1 to EC50 for prochloraz-susceptible Oculimacula yallundae isolate ProS by germ tube elongation inhibition assay; assay type: functional
Oculimacula yallundae [5] = test: Resistance index, ratio of EC50 for prochloraz-resistant Oculimacula yallundae isolate ProR2 to EC50 for prochloraz-susceptible Oculimacula yallundae isolate ProS by mycelial growth inhibition assay; assay type: functional
Oculimacula yallundae [6] = test: Resistance index, ratio of EC50 for prochloraz-resistant Oculimacula yallundae isolate ProR1 to EC50 for prochloraz-susceptible Oculimacula yallundae isolate ProS by mycelial growth inhibition assay; assay type: functional
Oculimacula yallundae [7] = test: Fungicidal activity against prochloraz-susceptible Oculimacula yallundae isolate ProS assessed as inhibition of germ tube elongation incubated at 19 degC in dark for 48 hr; assay type: functional, organism-based
Oculimacula yallundae [8] = test: Fungicidal activity against prochloraz-susceptible Oculimacula yallundae isolate ProS assessed as inhibition of mycelial growth in presence of 10 g glucose incubated at 19 degC in dark for 4 weeks; assay type: functional, organism-based; conditions: 672 h
Oculimacula yallundae [9] = test: Resistance index, ratio of EC50 for sterol 14alpha-demethylation inhibitor-resistant Oculimacula yallundae MDR to EC50 for sterol 14alpha-demethylation inhibitor-resistant Oculimacula yallundae TriR1 by germ tube elongation assay; assay type: functional
Oculimacula yallundae [10] = test: Resistance index, ratio of EC50 for sterol 14alpha-demethylation inhibitor-resistant Oculimacula yallundae MDR to EC50 for wild type Oculimacula yallundae TriS by germ tube elongation assay; assay type: functional
Oculimacula yallundae [11] = test: Resistance index, ratio of EC50 for sterol 14alpha-demethylation inhibitor-resistant Oculimacula yallundae TriR2 to EC50 for sterol 14alpha-demethylation inhibitor-resistant Oculimacula yallundae TriR1 by germ tube elongation assay; assay type: functional
Oculimacula yallundae [12] = test: Resistance index, ratio of EC50 for sterol 14alpha-demethylation inhibitor-resistant Oculimacula yallundae TriR2 to EC50 for wild type Oculimacula yallundae TriS by germ tube elongation assay; assay type: functional
Oculimacula yallundae [13] = test: Resistance index, ratio of EC50 for sterol 14alpha-demethylation inhibitor-resistant Oculimacula yallundae TriR1 to EC50 for wild type Oculimacula yallundae TriS by germ tube elongation assay; assay type: functional
Oculimacula yallundae [14] = test: Resistance index, ratio of EC50 for sterol 14alpha-demethylation inhibitor-resistant Oculimacula yallundae MDR to EC50 for sterol 14alpha-demethylation inhibitor-resistant Oculimacula yallundae TriR1 by mycelial growth inhibition assay; assay type: functional
Oculimacula yallundae [15] = test: Resistance index, ratio of EC50 for sterol 14alpha-demethylation inhibitor-resistant Oculimacula yallundae TriR1 to EC50 for wild type Oculimacula yallundae TriS by mycelial growth inhibition assay; assay type: functional
[16] = Selectivity index, ratio of EC50 for Oculimacula acuformis to EC50 for Oculimacula yallundae in presence of 10 g glucose by mycelial growth inhibition assay; assay type: functional
Oculimacula yallundae [17] = test: Fungicidal activity against Oculimacula yallundae assessed as inhibition of mycelial growth in presence of 10 g glucose incubated at 19 degC in dark for 4 weeks; assay type: functional, organism-based; conditions: 672 h
Oculimacula acuformis [18] = test: Fungicidal activity against Oculimacula acuformis assessed as inhibition of mycelial growth in presence of 10 g glucose incubated at 19 degC in dark for 4 weeks; assay type: functional, organism-based; conditions: 672 h
[19] = Selectivity index, ratio of EC50 for Oculimacula acuformis to EC50 for Oculimacula yallundae by germ tube elongation inhibition assay; assay type: functional
Oculimacula yallundae [20] = test: Fungicidal activity against Oculimacula yallundae assessed as inhibition of germ tube elongation incubated at 19 degC in dark for 48 hr; assay type: functional, organism-based
Oculimacula acuformis [21] = test: Fungicidal activity against Oculimacula acuformis assessed as inhibition of germ tube elongation incubated at 19 degC in dark for 48 hr; assay type: functional, organism-based
Oculimacula yallundae [22] = test: Resistance index, ratio of EC50 for prochloraz-resistant Oculimacula yallundae isolate ProR2 to EC50 for prochloraz-susceptible Oculimacula yallundae isolate ProS by germ tube elongation inhibition assay; assay type: functional

Row | SMILES | Ratio EC50 (Oculimacula yallundae [1]) | Ratio EC50 (Oculimacula yallundae [2]) | Ratio EC50 (Oculimacula yallundae [3]) | Ratio EC50 (Oculimacula yallundae [4]) | EC50 (Oculimacula yallundae [7]) | Ratio EC50 (Oculimacula yallundae [9]) | Ratio EC50 (Oculimacula yallundae [10]) | Ratio EC50 (Oculimacula yallundae [11]) | Ratio EC50 (Oculimacula yallundae [12]) | Ratio EC50 (Oculimacula yallundae [13]) | Ratio EC50 (Oculimacula yallundae [14]) | Ratio EC50 (Oculimacula yallundae [15]) | Ratio EC50 [16] | EC50 (Oculimacula yallundae [17]) | EC50 (Oculimacula acuformis [18]) | Ratio EC50 [19] | EC50 (Oculimacula yallundae [20]) | EC50 (Oculimacula acuformis [21]) | Ratio EC50 (Oculimacula yallundae [22]) | also measured
1 | Fc1ccc([C@]2(Cn3cncn3)O[C@H]2c2ccccc2Cl)cc1 (relative stereo) [EPOXICONAZOLE] | 3.3 | 1 | 6.7 | 2 | 0.3 µg/mL (≈ 0.91 µM) | 5 | 150 | 2 | 60 | 30 | 2 | 3.3 | 2 | 0.15 µg/mL | 0.3 µg/mL | 15 | 0.02 µg/mL (≈ 0.0606 µM) | 0.3 µg/mL (≈ 0.91 µM) | 3 | Ratio EC50 (Oculimacula yallundae [5]): 5; Ratio EC50 (Oculimacula yallundae [6]): 3.3; EC50 (Oculimacula yallundae [8]): 0.3 µg/mL
2 | COC(=O)Nc1nc2ccccc2[nH]1 [CARBENDAZIM] |  |  |  |  |  |  |  |  |  |  |  |  | 1.3 | 0.03 µg/mL | 0.04 µg/mL | 1 | 0.04 µg/mL (≈ 0.209 µM) | 0.04 µg/mL (≈ 0.209 µM) |  | 
3 | CC1=C(C(=O)Nc2ccccc2)SCCO1 [CARBOXIN] |  |  |  |  |  | 1.4 | 1.4 | 1.2 | 1.2 | 1 |  |  |  |  |  |  | 2.5 µg/mL (≈ 10.6 µM) |  |  | 
4 | CC(C1CC1)C(O)(Cn1cncn1)c1ccc(Cl)cc1 (stereo not given) [CYPROCONAZOLE] | 17 | 0.7 | 20 | 0.5 | 3 µg/mL (≈ 10.3 µM) | 1 | 160 | 0.6 | 100 | 160 | 0.9 | 23 | 40 | 0.3 µg/mL | 12 µg/mL | 60 | 0.05 µg/mL (≈ 0.171 µM) | 3 µg/mL (≈ 10.3 µM) | 0.8 | 
5 | Cc1cc(C2CC2)nc(Nc2ccccc2)n1 [CYPRODINIL] |  |  |  |  |  | 13 | 13 | 1 | 1 | 1 |  |  | 0.12 | 0.5 µg/mL | 0.06 µg/mL | 1 | 0.004 µg/mL (≈ 0.0178 µM) | 0.004 µg/mL (≈ 0.0178 µM) |  | 
6 | CC1(C(=O)Nc2ccc(O)c(Cl)c2Cl)CCCCC1 [FENHEXAMID] | 1.2 | 0.8 | 2.5 |  |  | 28 | 33 | 1 | 1.2 | 1.2 | 1.7 | 1.5 | 0.8 | 0.4 µg/mL | 0.32 µg/mL | 0.8 | 0.06 µg/mL (≈ 0.199 µM) | 0.05 µg/mL (≈ 0.165 µM) |  | 
7 | CC(Cc1ccc(C(C)(C)C)cc1)CN1C[C@@H](C)O[C@@H](C)C1 (stereo not given in full) [FENPROPIMORPH] |  |  |  |  |  |  |  |  |  |  |  |  | 0.12 | 15 µg/mL | 1.8 µg/mL | 0.15 | 0.4 µg/mL (≈ 1.32 µM) | 0.06 µg/mL (≈ 0.198 µM) |  | 
8 | C[Si](Cn1cncn1)(c1ccc(F)cc1)c1ccc(F)cc1 [FLUSILAZOLE] |  |  |  | 2.5 | 0.2 µg/mL (≈ 0.634 µM) |  |  |  |  |  |  |  | 6.7 | 0.06 µg/mL | 0.4 µg/mL | 25 | 0.008 µg/mL (≈ 0.0254 µM) | 0.2 µg/mL (≈ 0.634 µM) | 5 | Ratio EC50 (Oculimacula yallundae [5]): 6.2; Ratio EC50 (Oculimacula yallundae [6]): 5; EC50 (Oculimacula yallundae [8]): 0.4 µg/mL
9 | COc1cc(C)c(C(=O)c2c(OC)ccc(Br)c2C)c(OC)c1OC [METRAFENONE] | 1.3 | 1.3 | 1.1 |  |  |  |  |  |  |  | 1.1 | 1 | 0.1 | 0.8 µg/mL | 0.08 µg/mL |  | > 25 µg/mL | > 25 µg/mL |  | 
10 | CC(C)CC(C)c1sccc1NC(=O)c1cn(C)nc1C(F)(F)F (stereo not given) [PENTHIOPYRAD] |  |  |  |  |  | 12 | 12 | 1 | 1 | 1 |  |  |  |  |  |  | 0.02 µg/mL (≈ 0.0556 µM) |  |  | 
11 | Cc1cc(C)nc(Nc2ccccc2)n1 [PYRIMETHANIL] |  |  |  |  |  | 12 | 12 | 1.2 | 1.2 | 1 |  |  |  |  |  |  | 0.1 µg/mL (≈ 0.502 µM) |  |  | 
12 | CC(C)(C)C(O)(CCc1ccc(Cl)cc1)Cn1cncn1 (stereo not given) [TEBUCONAZOLE] | 30 | 1.5 | 25 | 3 | 0.5 µg/mL (≈ 1.62 µM) | 4 | 267 | 1.5 | 100 | 67 | 1.3 | 20 | 20 | 0.2 µg/mL | 4 µg/mL | 17 | 0.03 µg/mL (≈ 0.0975 µM) | 0.5 µg/mL (≈ 1.62 µM) | 5 | 
13 | CN(C/C=C/C#CC(C)(C)C)Cc1cccc2ccccc12 [TERBINAFINE] |  |  |  |  |  |  |  |  |  |  |  |  | 0.8 | 0.3 µg/mL | 0.25 µg/mL | 1.3 | 0.008 µg/mL (≈ 0.0275 µM) | 0.01 µg/mL (≈ 0.0343 µM) |  | 
14 | Cc1cccc(N(C)C(=S)Oc2ccc3ccccc3c2)c1 [TOLNAFTATE] |  |  |  |  |  | >25 | >30 | 0.8 | 1 | 1.3 |  |  |  |  |  |  | 0.3 µg/mL (≈ 0.976 µM) |  |  | 
15 | CCCOC/C(=N\c1ccc(Cl)cc1C(F)(F)F)n1ccnc1 [TRIFLUMIZOLE] |  |  |  | 0.1 | 9 µg/mL (≈ 26 µM) | 1.1 | 243 | 0.3 | 71 | 214 |  |  | > 30 | 0.8 µg/mL | > 25 µg/mL | 129 | 0.07 µg/mL (≈ 0.202 µM) | 9 µg/mL (≈ 26 µM) | 0.8 | 
